≈ marks a conversion by molar mass, not a printed value.

Series [1] relates to Pseudomonas aeruginosa 27853. As to the kind of experiment: MIC determination by dilution procedure. In kind it is cell-based. The conditions noted are these: dilutions 125-1.95 μg/mL; for MIC: Pseudomonas aeruginosa, 27853, P. aeruginosa 27853, read-out: minimum inhibitory concentration (MIC).
In series [2] the test system is Bacillus subtilis 6633. Briefly: MIC determination by dilution procedure. In kind it is cell-based. The conditions noted are these: B. subtilis 6633, dilutions 125-1.95 μg/mL, read-out: minimum inhibitory concentration (MIC).
Procedure: (§1) A 100 μL measure of NB containing each test microorganism was added to the sterile Petri dishes. Antibacterial testing was carried out on all compounds (3a,b–14) using the agar disc-diffusion method [40]. Sterile nutrients were inoculated with 100 μL cell suspension of the chosen test microorganism and poured into Petri dishes (20 cm diameter). Filter paper discs (Whatman, No.3, diameter 5 mm) were loaded with 10 μL containing 100 μg of the tested compounds, as well as the standard drug. Composite compound disks were placed on the surface of inoculated agar plates and kept at low temperatures before incubation in order to support the swelling and diffusion of the microbial growth. The plates were incubated at 37 °C in the incubator. Experiments were performed in duplicate and the diameters of inhibition zones were measured after 24 h. A diameter of inhibition zone (DIZ) assay was performed to evaluate the antimicrobial potential of the compounds against the tested organisms compared with reference antibiotics.
In series [3] the test system is Salmonella typhimurium 14028. Briefly: MIC determination by dilution procedure. Particulars: Salmonella enterica; S. typhimurium 14028; dilutions 125-1.95 μg/mL; read-out: minimum inhibitory concentration (MIC). In kind it is cell-based.
Procedure: (§2) The clinical control strains of Gram-negative bacteria (Escherichia coli 8739, Salmonella typhimurium 14028, Pseudomonas aeruginosa 27853) and Gram-positive bacteria (Bacillus subtilis 6633, Bacillus cereus 33018, Staphylococcus aureus 25923), were obtained from microbial inoculums by subculturing microorganisms into nutrient broth (NB) at 37 °C for 18 h, and were adjusted to 0.125 A° at 625 nm (equivalent to a McFarland 0.5) in 2-fold NB. A 100 μL measure of NB containing each test microorganism was added to the sterile Petri dishes. Antibacterial testing was carried out on all compounds (3a,b–14) using the agar disc-diffusion method [40]. Sterile nutrients were inoculated with 100 μL cell suspension of the chosen test microorganism and poured into Petri dishes (20 cm diameter). Filter paper discs (Whatman, No.3, diameter 5 mm) were loaded with 10 μL containing 100 μg of the tested compounds, as well as the standard drug. Composite compound disks were placed on the surface of inoculated agar plates and kept at low temperatures before incubation in order to support the swelling and diffusion of the microbial growth. The plates were incubated at 37 °C in the incubator. Experiments were performed in duplicate and the diameters of inhibition zones were measured after 24 h.
Series [4] has as its system Bacillus cereus 33018. As to the kind of experiment: MIC determination by dilution procedure. Particulars: B. cereus 33018, dilutions 125-1.95 μg/mL, read-out: minimum inhibitory concentration (MIC). In kind it is cell-based.
Procedure: as §1
In series [5] the test system is Staphylococcus aureus 25923. As to the kind of experiment: MIC determination by dilution procedure. In kind it is cell-based. Particulars: dilutions 125-1.95 μg/mL; for MIC: Staphylococcus aureus, 25923, S. aureus 25923, read-out: minimum inhibitory concentration (MIC).
Procedure: as §1
Series [6] has as its system Staphylococcus aureus 25923. Briefly: agar disc-diffusion antibacterial assay. In kind it is cell-based. Particulars: S. aureus 25923, disc loaded with 100 μg, 37 °C, 24 h, read-out: diameter of inhibition zone.
Procedure: (§3) The clinical control strains of Gram-negative bacteria (Escherichia coli 8739, Salmonella typhimurium 14028, Pseudomonas aeruginosa 27853) and Gram-positive bacteria (Bacillus subtilis 6633, Bacillus cereus 33018, Staphylococcus aureus 25923), were obtained from microbial inoculums by subculturing microorganisms into nutrient broth (NB) at 37 °C for 18 h, and were adjusted to 0.125 A° at 625 nm (equivalent to a McFarland 0.5) in 2-fold NB. A 100 μL measure of NB containing each test microorganism was added to the sterile Petri dishes. Antibacterial testing was carried out on all compounds (3a,b–14) using the agar disc-diffusion method [40]. Sterile nutrients were inoculated with 100 μL cell suspension of the chosen test microorganism and poured into Petri dishes (20 cm diameter). Filter paper discs (Whatman, No.3, diameter 5 mm) were loaded with 10 μL containing 100 μg of the tested compounds, as well as the standard drug. Composite compound disks were placed on the surface of inoculated agar plates and kept at low temperatures before incubation in order to support the swelling and diffusion of the microbial growth. The plates were incubated at 37 °C in the incubator. Experiments were performed in duplicate and the diameters of inhibition zones were measured after 24 h. A diameter of inhibition zone (DIZ) assay was performed to evaluate the antimicrobial potential of the compounds against the tested organisms compared with reference antibiotics.
In series [7] the test system is Bacillus subtilis 6633. Briefly: agar disc-diffusion antibacterial assay. In kind it is cell-based. Particulars: B. subtilis 6633, disc loaded with 100 μg, 37 °C, 24 h, read-out: diameter of inhibition zone.
Procedure: as §1
The test system of series [8] is Bacillus cereus 33018. As to the kind of experiment: agar disc-diffusion antibacterial assay. It counts as cell-based. Particulars: B. cereus 33018, disc loaded with 100 μg, 37 °C, 24 h, read-out: diameter of inhibition zone.
Procedure: as §1
Series [9] relates to Escherichia coli 8739. As to the kind of experiment: agar disc-diffusion antibacterial assay. It counts as cell-based. Particulars: E. coli 8739, disc loaded with 100 μg, 37 °C, 24 h, read-out: diameter of inhibition zone.
Procedure: as §3
The test system of series [10] is Pseudomonas aeruginosa 27853. Briefly: agar disc-diffusion antibacterial assay. It counts as cell-based. Particulars: P. aeruginosa 27853, disc loaded with 100 μg, 37 °C, 24 h, read-out: diameter of inhibition zone.
Procedure: as §3
Series [11] concerns Salmonella typhimurium 14028. Briefly: agar disc-diffusion antibacterial assay. It counts as cell-based. The conditions noted are these: Salmonella enterica; S. typhimurium 14028; disc loaded with 100 μg; 37 °C, 24 h; read-out: diameter of inhibition zone.
Procedure: as §2
In series [12] the test system is Escherichia coli 8739. As to the kind of experiment: MIC determination by dilution procedure. It counts as cell-based. The conditions noted are these: E. coli 8739, dilutions 125-1.95 μg/mL, read-out: minimum inhibitory concentration (MIC).

Consider `CC1(C)S[C@@H]2[C@H](NC(=O)[C@H](N)c3ccc(O)cc3)C(=O)N2[C@H]1C(=O)O` [Amoxicillin, amoxicillin trihydrate, reference compound], for which the MIC (in [1]; in the series with Bacillus subtilis 6633 [2]; in series [3]; with Bacillus cereus 33018 [4]; in series [5]; with Escherichia coli 8739 [12]) was 15.6 µg/mL in each case. For the same compound, the zone of inhibition at 100 µg/disc was 19 mm in [6]; 17 mm in the series with Bacillus subtilis 6633 [7]; 19 mm in the series on Bacillus cereus 33018 [8]; 20 mm in the series with Escherichia coli 8739 [9]; 18 mm in series [10]; 21 mm in series [11].
Turning to `COc1ccc(-c2cc(-c3ccco3)nc(SCC(N)=O)c2C#N)cc1` [Compound 2a, 2-((3-Cyano-6-(furan-2-yl)-4-(4-methoxyphenyl)pyridin-2-yl)thio)acetamide], the melting point stood at 246 °C.
On the same count and under the same terms, then `N#Cc1c(-c2cccs2)cc(-c2ccco2)nc1SCC(N)=O` [Compound 2b, 2-((3-Cyano-6-(furan-2-yl)-4-(thiophen-2-yl)pyridin-2-yl)thio)acetamide], with 242 °C.
Take `NC(=O)c1sc2nc(-c3ccco3)cc(-c3cccs3)c2c1N=C1CCCCC1` [Compound 4b, 3-(Cyclohexylideneamino)-6-(furan-2-yl)-4-(thiophen-2-yl)thieno[2,3-b]pyridine-2-carboxamide]: the melting point was 320 to 322 °C. Besides, the MIC in the series with Bacillus subtilis 6633 [2] turned out to be 31.2 µg/mL (≈ 74.1 µM). The MIC in series [3] worked out at 15.6 µg/mL (≈ 37.1 µM). Besides, in [5], the MIC was 31.2 µg/mL (≈ 74.1 µM). In addition, the zone of inhibition at 100 µg/disc in [6] came to 12 mm. The zone of inhibition at 100 µg/disc in the series with Bacillus subtilis 6633 [7] worked out at 10 mm. For the same compound, in the series on Escherichia coli 8739 [9], the zone of inhibition at 100 µg/disc was 12 mm. For the same compound, the zone of inhibition at 100 µg/disc in [11] is 15 mm. Further, the MIC with Escherichia coli 8739 [12] was found to be 31.2 µg/mL (≈ 74.1 µM).
For the compound `COc1ccc(-c2cc(-c3ccco3)nc3sc4c(N)c5c(nc4c23)CCCC5)cc1` [Compound 5a, 2-(Furan-2-yl)-4-(4-methoxyphenyl)-6,7,8,9-tetrahydropyrido[3′,2′:4,5]thieno[3,2-b]quinolin-10-amine], the melting point is 231 °C. Also, the MIC in [1] is 31.2 µg/mL (≈ 73.1 µM). Moreover, the MIC in the series on Bacillus subtilis 6633 [2] amounted to 31.2 µg/mL (≈ 73.1 µM). Also, the MIC with Bacillus cereus 33018 [4] is 31.2 µg/mL (≈ 73.1 µM). Further, the zone of inhibition at 100 µg/disc in the series on Bacillus subtilis 6633 [7] was determined as 10 mm. Moreover, the zone of inhibition at 100 µg/disc in the series on Bacillus cereus 33018 [8] worked out at 13 mm. Further, in the series on Escherichia coli 8739 [9], the zone of inhibition at 100 µg/disc amounted to 12 mm. Moreover, the zone of inhibition at 100 µg/disc in series [10] is 12 mm. Moreover, the MIC with Escherichia coli 8739 [12] came out at 31.2 µg/mL (≈ 73.1 µM).
On to `NNCC(=O)Nc1c2c(nc3c1sc1nc(-c4ccco4)cc(-c4cccs4)c13)CCCC2` [Compound 7b, N-(2-(furan-2-yl)-4-(thiophen-2-yl)-6,7,8,9-tetrahydropyrido[3′,2′:4,5]thieno[3,2-b]quinolin-10-yl)-2-hydrazinylacetamide], for which the melting point stood at 306 °C. Further, in series [1], the MIC was found to be 31.2 µg/mL (≈ 65.7 µM). Also, the MIC in the series on Bacillus subtilis 6633 [2] came out at 62.5 µg/mL (≈ 131 µM). Moreover, the MIC in series [3] is 31.2 µg/mL (≈ 65.7 µM). In addition, in the series with Bacillus cereus 33018 [4], the MIC is 31.2 µg/mL (≈ 65.7 µM). The MIC in series [5] came out at 31.2 µg/mL (≈ 65.7 µM). In addition, the zone of inhibition at 100 µg/disc in series [6] was 10 mm. In addition, the zone of inhibition at 100 µg/disc in the series on Bacillus subtilis 6633 [7] amounted to 8 mm. For the same compound, the zone of inhibition at 100 µg/disc in the series on Bacillus cereus 33018 [8] was 11 mm. Moreover, the zone of inhibition at 100 µg/disc in series [10] is 12 mm. Besides, in series [11], the zone of inhibition at 100 µg/disc came to 10 mm.
`COc1ccc(-c2cc(-c3ccco3)nc3sc4c(NC(=O)CNN=Cc5ccc(OC)c(OC)c5)c5c(nc4c23)CCCC5)cc1` [Compound 8a, 2-(2-(3,4-Dimethoxybenzylidene)hydrazinyl)-N-(2-(furan-2-yl)-4-(4-methoxyphenyl)-6,7,8,9-tetrahydropyrido[3′,2′:4,5]thieno[3,2-b]quinolin-10-yl)acetamide] returned a melting point of 187 °C. In addition, in the series with Bacillus subtilis 6633 [2], the MIC was determined as 31.2 µg/mL (≈ 48.2 µM). The MIC with Bacillus cereus 33018 [4] is 31.2 µg/mL (≈ 48.2 µM). In addition, in series [5], the MIC came to 31.2 µg/mL (≈ 48.2 µM). Besides, the zone of inhibition at 100 µg/disc in [6] is 11 mm. Besides, the zone of inhibition at 100 µg/disc in the series with Bacillus subtilis 6633 [7] came to 11 mm. Also, in the series with Bacillus cereus 33018 [8], the zone of inhibition at 100 µg/disc was 9 mm.
On to `COc1ccc(-c2cc(-c3ccco3)nc3sc4c(NC(=O)CNN=Cc5ccc(C)cc5)c5c(nc4c23)CCCC5)cc1` [Compound 8b, N-(2-(furan-2-yl)-4-(4-methoxyphenyl)-6,7,8,9-tetrahydropyrido[3′,2′:4,5]thieno[3,2-b]quinolin-10-yl)-2-(2-(4-methylbenzylidene)hydrazinyl)acetamide], for which the melting point is 122 °C. For the same compound, the MIC in the series on Bacillus subtilis 6633 [2] was 31.2 µg/mL (≈ 51.9 µM). Also, the MIC in the series with Bacillus cereus 33018 [4] came out at 62.5 µg/mL (≈ 104 µM). Besides, the MIC in [5] came out at 62.5 µg/mL (≈ 104 µM). Further, the zone of inhibition at 100 µg/disc in series [6] is 8 mm. Also, the zone of inhibition at 100 µg/disc in the series on Bacillus subtilis 6633 [7] was 9 mm. For the same compound, the zone of inhibition at 100 µg/disc in the series on Bacillus cereus 33018 [8] turned out to be 9 mm.
Regarding `COc1ccc(-c2cc(-c3ccco3)nc3sc4c(NC(=O)CN5CCOCC5)c5c(nc4c23)CCCC5)cc1` [Compound 9a, N-(2-(furan-2-yl)-4-(4-methoxyphenyl)-6,7,8,9-tetrahydropyrido[3′,2′:4,5]thieno[3,2-b]quinolin-10-yl)-2-morpholinoacetamide], the melting point was 143 °C. The “minimum inhibitory concentration (MIC)” value in [1] (P. aeruginosa 27853) amounted to 31.25 µg/mL (≈ 56.3 µM). Besides, the MIC in [1] amounted to 15.6 µg/mL (≈ 28.2 µM). The MIC in the series with Bacillus subtilis 6633 [2] worked out at 15.6 µg/mL (≈ 28.2 µM). The MIC in series [3] is 15.6 µg/mL (≈ 28.2 µM). For the same compound, the MIC in the series on Bacillus cereus 33018 [4] worked out at 15.6 µg/mL (≈ 28.2 µM). For the same compound, in series [5] (S. aureus 25923), the “minimum inhibitory concentration (MIC)” value is listed as 31.25 µg/mL (≈ 56.3 µM). In addition, the MIC in series [5] was 15.6 µg/mL (≈ 28.2 µM). Further, the zone of inhibition at 100 µg/disc in series [6] is 12 mm. Further, in the series with Bacillus subtilis 6633 [7], the zone of inhibition at 100 µg/disc amounted to 14 mm. The zone of inhibition at 100 µg/disc in the series with Bacillus cereus 33018 [8] is 16 mm. Besides, in series [10], the zone of inhibition at 100 µg/disc came out at 11 mm. Moreover, in the series with Escherichia coli 8739 [12], the MIC came out at 15.6 µg/mL (≈ 28.2 µM).
For the compound `COc1ccc(-c2cc(-c3ccco3)nc3sc4c(NS(=O)(=O)c5ccccc5)c5c(nc4c23)CCCC5)cc1` [Compound 10, N-(2-(Furan-2-yl)-4-(4-methoxyphenyl)-6,7,8,9-tetrahydropyrido[3′,2′:4,5]thieno [3,2-b]quinolin-10-yl)benzenesulfonamide], the melting point was in the range of 303 to 304 °C. In addition, in the series on Bacillus subtilis 6633 [2], the MIC came out at 62.5 µg/mL (≈ 110 µM). Also, the MIC with Bacillus cereus 33018 [4] was 62.5 µg/mL (≈ 110 µM). For the same compound, the MIC in series [5] stood at 31.2 µg/mL (≈ 55 µM). Also, the zone of inhibition at 100 µg/disc in series [6] turned out to be 9 mm. For the same compound, in the series on Bacillus subtilis 6633 [7], the zone of inhibition at 100 µg/disc amounted to 8 mm. Moreover, the zone of inhibition at 100 µg/disc in the series with Bacillus cereus 33018 [8] amounted to 9 mm.
Turning to `COc1ccc(-c2cc(-c3ccco3)nc3sc4c(NC(=O)Nc5ccccc5)c5c(nc4c23)CCCC5)cc1` [Compound 11, 1-(2-(Furan-2-yl)-4-(4-methoxyphenyl)-6,7,8,9-tetrahydropyrido[3′,2′:4,5]thieno [3,2-b]quinolin-10-yl)-3-phenylurea], the melting point lay within 118 to 120 °C. Besides, the MIC in the series with Bacillus subtilis 6633 [2] worked out at 31.2 µg/mL (≈ 57.2 µM). Further, the MIC in the series with Bacillus cereus 33018 [4] came out at 62.5 µg/mL (≈ 114 µM). Also, in series [5], the MIC was 62.5 µg/mL (≈ 114 µM). Further, the zone of inhibition at 100 µg/disc in series [6] was determined as 8 mm. Further, the zone of inhibition at 100 µg/disc in the series with Bacillus subtilis 6633 [7] is 9 mm. Besides, the zone of inhibition at 100 µg/disc in the series on Bacillus cereus 33018 [8] came out at 8 mm.

These data come from article PMC6832920, “Synthesis, Docking Studies, and In Vitro Evaluation of Some Novel Thienopyridines and Fused Thienopyridine–Quinolines as Antibacterial Agents and DNA Gyrase Inhibitors” (Molecules, 2019).
